{
  "source": "patent US10111433B2",
  "about": "(priority 2014, dated 2018)",
  "key": {"Phytophthora infestans [1]": {"test_system": "Phytophthora infestans", "type": "in vivo"}, "Phytophthora infestans [2]": {"test_system": "Phytophthora infestans", "type": "in vivo", "settings": "Table B3; A-1.2 15 gai/ha; leaf area, four days after final application"}, "Plasmopara viticola": {"test_system": "Plasmopara viticola", "assay": "Field activity against Plasmopara viticola on grapevine", "type": "in vivo", "settings": "Table B2; A-1.2 22.5 gai/ha; bunches, ten days after sixth application", "from_the_text": "Merlot grapevines were cultivated in rows with 1 m between plants within the row, and 2 m spaces between rows. Treatment plots were defined with an 8 m^2 vertical area. The trial consisted of three replicates of the treatment list, with the positions of each treatment plot randomised within the replicate.\nTest compounds were formulated and applied to the relevant treatment plots, using a backpack sprayer with a flat fan nozzle. The first application was made when the majority of plants were at growth stage BBCH 15 and following applications at 10-14 day intervals through to growth stage BBCH 79.\nThe first symptoms of the target pathogen Plasmopara viticola were observed between the second and third applications. Plants outside the trial area were inoculated to increase the disease pressure, but infection processes within the trial plots were natural. […]\nTen days after the sixth application, at growth stage BBCH 79, the fruit was assessed for infection by Plasmopara viticola. 50 bunches per plot were assessed, the scores given in table B2 are percent disease control relative to untreated, based on the mean percentage of bunches showing symptoms of infection across all three replicates of a treatment."}, "Phytophthora capsici": {"test_system": "Phytophthora capsici", "assay": "Activity against Phytophthora capsici, growth inhibition in nutrient broth (microtiter plate)", "type": "cell-based", "settings": "Phytophthora capsici, read-out: % disease control; for inhibition of growth at 6.25e-05 ppm: A-1.2 0.0000625 ppm; for inhibition of growth at 0.0005 ppm: A-1.2 0.0005000 ppm; for inhibition of growth at 3.9e-06 ppm: A-1.2 0.0000039 ppm; for inhibition of growth at 7.8e-06 ppm: A-1.2 0.0000078 ppm; for inhibition of growth at 1.56e-05 ppm: A-1.2 0.0000156 ppm; for inhibition of growth at 3.13e-05 ppm: A-1.2 0.0000313 ppm", "procedure": "Conidia of the fungus from cryogenic storage are directly mixed into nutrient broth (PDB potato dextrose broth). After placing a (DMSO) solution of test compound into a microtiter plate (96-well format), the nutrient broth containing the fungal spores is added. […] Table B4 to B21 gives the mean percent control relative to untreated."}},
  "note": "Where two headings read alike, the source gives them in different places.",
  "data": [
    {"smiles": "O=C(N[C@@H]1CCCc2ccccc21)c1cc(C2CCN(C(=O)Cn3nc(C(F)F)cc3C(F)F)CC2)ccn1", "note": "[Compound A-1.2, 1′-[2-(3,5-bis-difluoromethyl-pyrazol-1-yl)-acetyl]-1′,2′,3′,4′,5′,6′-hexahydro-[4,4′]bipyridinyl-2-carboxylic acid (R)-(1,2,3,4-tetrahydronaphthalen-1-yl)-amide]", "values": [
      {"measurement": "% disease control", "setting": "Phytophthora infestans [1]; Table B1.1, A-1.2 0.02 ppm", "value": 0, "unit": "%"},
      {"measurement": "% disease control", "setting": "Phytophthora infestans [1]; Table B1.1, A-1.2 0.06 ppm", "value": 14, "unit": "%"},
      {"measurement": "% disease control", "setting": "Phytophthora infestans [1]; Table B1.2, A-1.2 0.06 ppm", "value": 14, "unit": "%"},
      {"measurement": "% disease control", "setting": "Phytophthora infestans [1]; Table B1.3, A-1.2 0.06 ppm", "value": 14, "unit": "%"},
      {"measurement": "% disease control relative to untreated", "setting": "Phytophthora infestans [2]", "value": 64.8, "unit": "%"},
      {"measurement": "% disease control relative to untreated", "setting": "Plasmopara viticola", "value": 87.3, "unit": "%"},
      {"measurement": "inhibition of growth at 6.25e-05 ppm", "setting": "Phytophthora capsici; Table B4", "value": 0, "unit": "%"},
      {"measurement": "inhibition of growth at 0.000125 ppm", "setting": "Phytophthora capsici; Table B4, A-1.2 0.0001250 ppm", "value": 32, "unit": "%"},
      {"measurement": "inhibition of growth at 0.00025 ppm", "setting": "Phytophthora capsici; Table B4, A-1.2 0.0002500 ppm", "value": 64, "unit": "%"},
      {"measurement": "inhibition of growth at 0.0005 ppm", "setting": "Phytophthora capsici; Table B4", "value": 76, "unit": "%"},
      {"measurement": "inhibition of growth at 2e-06 ppm", "setting": "Phytophthora capsici; Table B5, A-1.2 0.0000020 ppm", "value": 0, "unit": "%"},
      {"measurement": "inhibition of growth at 3.9e-06 ppm", "setting": "Phytophthora capsici; Table B5", "value": 0, "unit": "%"},
      {"measurement": "inhibition of growth at 7.8e-06 ppm", "setting": "Phytophthora capsici; Table B5", "value": 0, "unit": "%"},
      {"measurement": "inhibition of growth at 1.56e-05 ppm", "setting": "Phytophthora capsici; Table B5", "value": 0, "unit": "%"},
      {"measurement": "inhibition of growth at 3.13e-05 ppm", "setting": "Phytophthora capsici; Table B5", "value": 0, "unit": "%"},
      {"measurement": "inhibition of growth at 6.25e-05 ppm", "setting": "Phytophthora capsici; Table B5", "value": 47, "unit": "%"},
      {"measurement": "inhibition of growth at 6.25e-05 ppm", "setting": "Phytophthora capsici; Table B6", "value": 0, "unit": "%"},
      {"measurement": "inhibition of growth at 0.000125 ppm", "setting": "Phytophthora capsici; Table B6, A-1.2 0.0001250 ppm", "value": 40, "unit": "%"},
      {"measurement": "inhibition of growth at 0.00025 ppm", "setting": "Phytophthora capsici; Table B6, A-1.2 0.0002500 ppm", "value": 78, "unit": "%"},
      {"measurement": "inhibition of growth at 3.9e-06 ppm", "setting": "Phytophthora capsici; Table B7", "value": 0, "unit": "%"},
      {"measurement": "inhibition of growth at 7.8e-06 ppm", "setting": "Phytophthora capsici; Table B7", "value": 0, "unit": "%"},
      {"measurement": "inhibition of growth at 1.56e-05 ppm", "setting": "Phytophthora capsici; Table B7", "value": 0, "unit": "%"},
      {"measurement": "inhibition of growth at 3.13e-05 ppm", "setting": "Phytophthora capsici; Table B7", "value": 0, "unit": "%"},
      {"measurement": "inhibition of growth at 6.25e-05 ppm", "setting": "Phytophthora capsici; Table B7", "value": 38, "unit": "%"},
      {"measurement": "inhibition of growth at 0.000125 ppm", "setting": "Phytophthora capsici; Table B7, A-1.2 0.0001250 ppm", "value": 42, "unit": "%"},
      {"measurement": "inhibition of growth at 6.25e-05 ppm", "setting": "Phytophthora capsici; Table B8", "value": 3, "unit": "%"},
      {"measurement": "inhibition of growth at 0.000125 ppm", "setting": "Phytophthora capsici; Table B8, A-1.2 0.0001250 ppm", "value": 56, "unit": "%"},
      {"measurement": "inhibition of growth at 0.00025 ppm", "setting": "Phytophthora capsici; Table B8, A-1.2 0.0002500 ppm", "value": 69, "unit": "%"},
      {"measurement": "inhibition of growth at 6.25e-05 ppm", "setting": "Phytophthora capsici; Table B9", "value": 0, "unit": "%"},
      {"measurement": "inhibition of growth at 0.000125 ppm", "setting": "Phytophthora capsici; Table B9, A-1.2 0.0001250 ppm", "value": 47, "unit": "%"},
      {"measurement": "inhibition of growth at 6.25e-05 ppm", "setting": "Phytophthora capsici; Table B10", "value": 12, "unit": "%"},
      {"measurement": "inhibition of growth at 0.000125 ppm", "setting": "Phytophthora capsici; Table B10, A-1.2 0.0001250 ppm", "value": 62, "unit": "%"},
      {"measurement": "inhibition of growth at 6.25e-05 ppm", "setting": "Phytophthora capsici; Table B11", "value": 0, "unit": "%"},
      {"measurement": "inhibition of growth at 0.000125 ppm", "setting": "Phytophthora capsici; Table B11, A-1.2 0.0001250 ppm", "value": 55, "unit": "%"},
      {"measurement": "inhibition of growth at 0.00025 ppm", "setting": "Phytophthora capsici; Table B11, A-1.2 0.0002500 ppm", "value": 82, "unit": "%"},
      {"measurement": "inhibition of growth at 3.13e-05 ppm", "setting": "Phytophthora capsici; Table B12", "value": 0, "unit": "%"},
      {"measurement": "inhibition of growth at 6.25e-05 ppm", "setting": "Phytophthora capsici; Table B12", "value": 0, "unit": "%"},
      {"measurement": "inhibition of growth at 0.000125 ppm", "setting": "Phytophthora capsici; Table B12, A-1.2 0.0001250 ppm", "value": 57, "unit": "%"},
      {"measurement": "inhibition of growth at 0.00025 ppm", "setting": "Phytophthora capsici; Table B12, A-1.2 0.0002500 ppm", "value": 81, "unit": "%"},
      {"measurement": "inhibition of growth at 0.000125 ppm", "setting": "Phytophthora capsici; Table B13, A-1.2 0.0001250 ppm", "value": 46, "unit": "%"},
      {"measurement": "inhibition of growth at 0.00025 ppm", "setting": "Phytophthora capsici; Table B13, A-1.2 0.0002500 ppm", "value": 69, "unit": "%"},
      {"measurement": "inhibition of growth at 0.0005 ppm", "setting": "Phytophthora capsici; Table B13", "value": 84, "unit": "%"},
      {"measurement": "inhibition of growth at 1.56e-05 ppm", "setting": "Phytophthora capsici; Table B14", "value": 0, "unit": "%"},
      {"measurement": "inhibition of growth at 3.13e-05 ppm", "setting": "Phytophthora capsici; Table B14", "value": 0, "unit": "%"},
      {"measurement": "inhibition of growth at 6.25e-05 ppm", "setting": "Phytophthora capsici; Table B14", "value": 0, "unit": "%"},
      {"measurement": "inhibition of growth at 1.56e-05 ppm", "setting": "Phytophthora capsici; Table B15", "value": 0, "unit": "%"},
      {"measurement": "inhibition of growth at 3.13e-05 ppm", "setting": "Phytophthora capsici; Table B15", "value": 0, "unit": "%"},
      {"measurement": "inhibition of growth at 6.25e-05 ppm", "setting": "Phytophthora capsici; Table B15", "value": 0, "unit": "%"},
      {"measurement": "inhibition of growth at 0.000125 ppm", "setting": "Phytophthora capsici; Table B15, A-1.2 0.0001250 ppm", "value": 71, "unit": "%"},
      {"measurement": "inhibition of growth at 0.000125 ppm", "setting": "Phytophthora capsici; Table B16, A-1.2 0.0001250 ppm", "value": 54, "unit": "%"},
      {"measurement": "inhibition of growth at 6.25e-05 ppm", "setting": "Phytophthora capsici; Table B17", "value": 0, "unit": "%"},
      {"measurement": "inhibition of growth at 0.000125 ppm", "setting": "Phytophthora capsici; Table B17, A-1.2 0.0001250 ppm", "value": 67, "unit": "%"},
      {"measurement": "inhibition of growth at 0.00025 ppm", "setting": "Phytophthora capsici; Table B17, A-1.2 0.0002500 ppm", "value": 79, "unit": "%"},
      {"measurement": "inhibition of growth at 0.0005 ppm", "setting": "Phytophthora capsici; Table B17", "value": 82, "unit": "%"},
      {"measurement": "inhibition of growth at 7.8e-06 ppm", "setting": "Phytophthora capsici; Table B18", "value": 0, "unit": "%"},
      {"measurement": "inhibition of growth at 1.56e-05 ppm", "setting": "Phytophthora capsici; Table B18", "value": 0, "unit": "%"},
      {"measurement": "inhibition of growth at 3.13e-05 ppm", "setting": "Phytophthora capsici; Table B18", "value": 0, "unit": "%"},
      {"measurement": "inhibition of growth at 6.25e-05 ppm", "setting": "Phytophthora capsici; Table B18", "value": 0, "unit": "%"},
      {"measurement": "inhibition of growth at 0.000125 ppm", "setting": "Phytophthora capsici; Table B18, A-1.2 0.0001250 ppm", "value": 46, "unit": "%"},
      {"measurement": "inhibition of growth at 1.56e-05 ppm", "setting": "Phytophthora capsici; Table B19", "value": 0, "unit": "%"},
      {"measurement": "inhibition of growth at 3.13e-05 ppm", "setting": "Phytophthora capsici; Table B19", "value": 0, "unit": "%"},
      {"measurement": "inhibition of growth at 6.25e-05 ppm", "setting": "Phytophthora capsici; Table B19", "value": 0, "unit": "%"},
      {"measurement": "inhibition of growth at 0.000125 ppm", "setting": "Phytophthora capsici; Table B19, A-1.2 0.0001250 ppm", "value": 38, "unit": "%"},
      {"measurement": "inhibition of growth at 0.00025 ppm", "setting": "Phytophthora capsici; Table B19, A-1.2 0.0002500 ppm", "value": 81, "unit": "%"},
      {"measurement": "inhibition of growth at 6.25e-05 ppm", "setting": "Phytophthora capsici; Table B20", "value": 66, "unit": "%"},
      {"measurement": "inhibition of growth at 0.000125 ppm", "setting": "Phytophthora capsici; Table B20, A-1.2 0.0001250 ppm", "value": 83, "unit": "%"},
      {"measurement": "inhibition of growth at 6.3e-05 ppm", "setting": "Phytophthora capsici; Table B21, A-1.2 0.000063 ppm", "value": 0, "unit": "%"},
      {"measurement": "inhibition of growth at 0.000125 ppm", "setting": "Phytophthora capsici; Table B21, A-1.2 0.000125 ppm", "value": 69, "unit": "%"},
      {"measurement": "inhibition of growth at 0.00025 ppm", "setting": "Phytophthora capsici; Table B21, A-1.2 0.000250 ppm", "value": 78, "unit": "%"}
    ]}
  ]
}
